Experimental findings from patent US20250120967A1, “TYROSINE KINASES INHIBITORS AND USES THEREOF” (GREAT NOVEL THERAPEUTICS BIOTECH & MEDICALS CORPORATION, priority 2023, published 2025) are described below.

The test system of one assay is CT26 tumor. Nature of the assay: Experimental tumor model and therapies, CT26 tumor-bearing mice.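 Note: male Balb/c mice bearing CT26 grafts in the back, treated once tumors reached roughly 250–300 mm^3, tumor volume measured twice weekly, response graded by fold growth after treatment end.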
The test system of another assay is A549 cells. Nature of the assay: In vitro cytotoxicity assay (MTT, 72 h). Format: cell-based. The following applies: Homo sapiens, growth inhibition. As to the method:
(§1) Six different cell lines were used, including human breast cancer cell lines MDA-MB-231 (6×10^3) and MDA-MB-453 (2.4×10^4), human colorectal cell line SW48 (2.4×10^4), human breast epithelial cell line M10 (6×10^3), human cancer cell line A549 (1.4×10^3), and murine colorectal carcinoma tumors CT26 (6×10^3), which were seeded in a 96-well plate. […] After 72 h, MTT assay (Cayman™) was used to determine the cellular viability.

The next assay concerns M10 cells. Nature of the assay: In vitro cytotoxicity assay (MTT, 72 h). The following applies: growth inhibition, human normal cell line. Format: cell-based. As to the method:
as §1

In another assay the test system is MDA-MB-231 cells. Nature of the assay: In vitro cytotoxicity assay (MTT, 72 h). Format: cell-based. The conditions noted are these: Homo sapiens, growth inhibition. As to the method: as §1
Another assay has as its system MDA-MB-453 cells. Nature of the assay: In vitro cytotoxicity assay (MTT, 72 h). The assay is classed as cell-based. The following applies: Homo sapiens, growth inhibition. As to the method: as §1
For another assay, the system named is SW48 cells. Nature of the assay: In vitro cytotoxicity assay (MTT, 72 h). Format: cell-based. The conditions noted are these: Homo sapiens, growth inhibition. As to the method:
as §1

A further assay concerns CT-26 cells. Nature of the assay: In vitro cytotoxicity assay (MTT, 72 h). Format: cell-based, murine. The following applies: Mus musculus, CT26, growth inhibition. On the procedure:
as §1

Setting [1] is: FIG. 5E, Cbo-23 30 mg/kg, Regorafenib 30 mg/kg, GNTbm-38-K30 20 mg/kg in combination, 5 mg/kg alone.
[2] abbreviates: FIG. 3E, oral 12 days, Cabozantinib 30 mg/kg, Cbo-20 30 mg/kg, GNTbm-38-K30 40 mg/kg.
[3] abbreviates: FIG. 7E, Cbo-23-K30 30 mg/kg, Zanzalintinib hemifumarate 30 mg/kg, GNTbm-38-2HCL 40 mg/kg.

Method for CT26 tumor: LLC1 was grown at 37° C. under humidified air supplemented with CO2 in DMEM (#10-013-CM, Corning®) containing 10% heat inactivated fetal calf serum, and 1× concentration of MycoZap Antibiotics. CT26 was grown at 37° C. under humidified air supplemented with CO2 in RPMI1640 (cat. #10-040-CM, Corning®) containing 10% heat inactivated fetal calf serum, and 1× concentration of MycoZap Antibiotics. After the cancer cell culture was completed, it was implanted (1×10^6 cells/mouse) into the back of the mouse for growth.
Six- to eight-week-old male Balb/c mice (National Laboratory Animal Center, Taiwan) were used for all animal experiments. […] Tumors were allowed to grow for 10-12 days (tumor size about 250-300 mm^3) before randomization and treatment. The tumor volume of the mice was measured once every three or four days (twice/week). Animals were euthanized when tumors reached more than 3000 mm^3 in diameter. […] Relapse/recurrence was defined as when tumor growth reappeared and tumor size reached at least 5 fold in mice with CR or PR response after secondary tumor assessment. In this study, we defined Complete Response (CR, <0.5 time tumor growth in the tumor bearing mice at tumor assessment after the end of treatment); Partial Response (PR, tumor size ≥0.5 time tumor growth, but <1 time tumor growth in the tumor bearing mice at tumor assessment after the end of treatment); Stable Disease (SD, ≥1 time tumor growth, but <5 times tumor growth in the tumor bearing mice at tumor assessment after the end of treatment); and Progressive Disease (PD, ≥5 times tumor growth in the tumor bearing mice at tumor assessment after the end of treatment) for the evaluation of treatment efficacy.

Take `CNC(=O)c1cc(Oc2ccc(NC(=O)Nc3ccc(Cl)c(C(F)(F)F)c3)c(F)c2)ccn1` [Regorafenib]: in the assay with CT26 tumor (setting [1]), the “CR (number of mice)” value was 0, the ORR is 0%, the “PD (number of mice)” value is reported as 7 and the “PR (number of mice)” value came to 0. The “Survival Rate” value in the assay on CT26 tumor (FIG. 5F, Cbo-23 30 mg/kg, Regorafenib 30 mg/kg, GNTbm-38-K30 20 mg/kg in combination, 5 mg/kg alone) came out at 0%.

As for `CC(CN)NC(=O)c1cc(Oc2ccc(N(C(=O)C3(C(N)=O)CC3)c3ccc(F)cc3)cc2F)ccn1` (centres unmarked) [Cbo-22, N-(4-((2-((1-aminopropan-2-yl)carbamoyl)pyridin-4-yl)oxy)-3-fluorophenyl)-N-(4-fluorophenyl)cyclopropane-1,1-dicarboxamide], the concentration for half-maximal inhibition (IC50) in the assay with A549 cells was 11.2 ± 1.18 µM; in the assay with M10 cells, 15.1 ± 0.44 µM; in the assay with MDA-MB-231 cells, 16.1 ± 0.19 µM; in the assay on MDA-MB-453 cells, above 25 µM; in the assay with SW48 cells, 21.9 ± 0.96 µM; in the assay on CT-26 cells, above 25 µM. The ORR in the assay with CT26 tumor (FIG. 4D, Cabozantinib 30 mg/kg, Cbo-22 30 mg/kg, GNTbm-38-K30 40 mg/kg) is on record as 0%. Besides, the “Survival Rate” value in the assay with CT26 tumor (FIG. 4E, Cabozantinib 30 mg/kg, Cbo-22 30 mg/kg, GNTbm-38-K30 40 mg/kg) came out at 0%.

In the case of `COc1cc2nccc(Oc3ccc(NC(=O)C4(NC(=O)c5ccc(F)cc5)CC4)cc3F)c2cc1Oc1ccc(N)cc1C` [Cbo-09], the IC50 in the assay on A549 cells stood at 6.89 ± 1.61 µM; in the assay on M10 cells, 0.99 ± 0.044 µM; with MDA-MB-231 cells, 12.6 ± 0.98 µM; in the assay on MDA-MB-453 cells, 9.28 ± 0.66 µM; in the assay with SW48 cells it was 1.02 ± 0.008 µM.

With `COc1cc2nccc(Oc3ccc(NC(=O)C4(NC(=O)c5ccc(F)cc5)CC4)cc3F)c2cc1Oc1ccc(N)cn1` [Cbo-06], the IC50 in the assay with A549 cells is 6.89 ± 1.61 µM; in the assay on M10 cells, 5.59 ± 0.46 µM; in the assay with MDA-MB-231 cells, above 25 µM; with MDA-MB-453 cells it was above 25 µM; with SW48 cells, 8.76 ± 0.52 µM.

For the compound `COc1cc2nccc(Oc3ccc(NC(=O)C4(NC(=O)c5ccc(F)cc5)CC4)cc3F)c2cc1Oc1ccc(N)cc1` [Cbo-05], the IC50 in the assay with A549 cells is 2.51 ± 0.21 µM; with M10 cells it was 1.17 ± 0.053 µM; with MDA-MB-231 cells, 7.84 ± 1.34 µM; in the assay with MDA-MB-453 cells it was 8.92 ± 1.49 µM; in the assay on SW48 cells, 1.86 ± 0.059 µM; in the assay with CT-26 cells it was 8.9 ± 0.61 µM.

For the compound `COc1cc2nccc(Oc3ccc(NC(=O)C4(C(=O)Nc5ccc(F)cc5)CC4)cc3F)c2cc1C(=O)NC(C)CN` (centres unmarked) [Cbo-24, O-phenyl-N-(4-fluorophenyl)cyclopropane-1,1-dicarboxamide], the IC50 is 16.2 ± 0.95 µM with A549 cells; above 25 µM in the assay on M10 cells; 15.7 ± 0.33 µM in the assay with MDA-MB-231 cells; 17 ± 0.96 µM in the assay with MDA-MB-453 cells; 8.75 ± 0.55 µM in the assay on SW48 cells; above 25 µM in the assay on CT-26 cells.

As to `COc1cc2nccc(Oc3ccc(N(C(=O)C4(C(N)=O)CC4)c4ccc(F)cc4)cc3F)c2cc1OC` [Cbo-20, N-(4-((6,7-dimethoxyquinolin-4-yl)oxy)-3-fluorophenyl)-N-(4-fluorophenyl)cyclo-propane-1,1-dicarboxamide], the IC50 in the assay with A549 cells stood at 3.34 ± 0.69 µM; with M10 cells, 5.47 ± 1.73 µM; with MDA-MB-231 cells, 4.81 ± 1.16 µM; in the assay on MDA-MB-453 cells, 14.1 ± 2.06 µM; with SW48 cells, 2.51 ± 0.18 µM; with CT-26 cells, 8.89 ± 0.24 µM. The “CR (number of mice)” value in the assay on CT26 tumor (setting [2]) is recorded as 2. This compound also registered an ORR with CT26 tumor (setting [2]) of 50%. Further, the “PD (number of mice)” value in the assay on CT26 tumor (setting [2]) amounted to 2. Also, the “PR (number of mice)” value in the assay with CT26 tumor (setting [2]) was found to be 2. Moreover, the “Survival Rate” value with CT26 tumor (FIG. 3F, Cabozantinib 30 mg/kg, Cbo-20 30 mg/kg, GNTbm-38-K30 40 mg/kg) was found to be 25%. This compound also yielded a recurrence rate with CT26 tumor (FIG. 3G, day 60, Cabozantinib 30 mg/kg, Cbo-20 30 mg/kg, GNTbm-38-K30 40 mg/kg) of 75%.

On to `COc1cc2nccc(Oc3ccc(NC(=O)C4(NC(=O)c5ccc(F)cc5)CC4)cc3F)c2cc1Oc1cccc(N)c1` [Cbo-08], for which the IC50 is 2.6 ± 1.82 µM in the assay on A549 cells; 1.83 ± 0.72 µM in the assay with M10 cells; above 25 µM with MDA-MB-231 cells; above 25 µM with MDA-MB-453 cells; 3.51 ± 0.48 µM with SW48 cells.

On to `COc1cc2nccc(Oc3ccc(C(=O)NC4(C(=O)Nc5ccc(F)cc5)CC4)cc3F)c2cc1OC` [Cbo-03, 4-((6,7-diMethoxyquinolin-4-yl)oxy)-3-fluoro-N-(1-((4-fluorophenyl)carbamoyl)cyclopropyl)benzamide], for which the IC50 was 12.8 ± 6.7 µM in the assay on A549 cells; 16.2 ± 1.44 µM with M10 cells; 12.7 ± 1.37 µM in the assay with MDA-MB-231 cells; 17.9 ± 1.34 µM with MDA-MB-453 cells; above 25 µM in the assay on SW48 cells.

As for Zanzalintinib hemifumarate, in the assay with CT26 tumor (setting [3]), the “CR (number of mice)” value was 0, the ORR stood at 0%, the “PD (number of mice)” value was found to be 9 and the “PR (number of mice)” value is on record as 0. For the same compound, the “tumor inhibition rate at day 28” value in the assay on CT26 tumor (FIGS. 7B, 7C, Cbo-23-K30 30 mg/kg, Zanzalintinib hemifumarate 30 mg/kg, GNTbm-38-2HCL 40 mg/kg) amounted to 2%.

With `COc1cc2nccc(Oc3ccc(NC(=O)C4(NC(=O)c5ccc(F)cc5)CC4)cc3F)c2cc1O` [Cbo-07, 4-Fluoro-N-(1-((3-fluoro-4-((6-hydroxy-7-methoxyquinolin-4-yl)oxy)phenyl)carbamoyl)cyclopropyl)benzamide], the IC50 was 1.49 ± 0.21 µM in the assay with A549 cells; 4.44 ± 1.51 µM in the assay on M10 cells; 5.07 ± 1.04 µM with MDA-MB-231 cells; above 25 µM with MDA-MB-453 cells; 0.74 ± 0.13 µM with SW48 cells.

`Nc1ccccc1NC(=O)c1ccc(NC(=O)C/C=C/c2cccnc2)cc1` [GNTbm-38-2HCL, (E)-N-(2-aminophenyl)-4-(4-(pyridin-3-yl)but-3-enamido)benzamide]: in the assay on CT26 tumor (setting [3]), the “CR (number of mice)” value stood at 0, the ORR was found to be 0%, the “PD (number of mice)” value is 9 and the “PR (number of mice)” value worked out at 0.

In general, IC50 refers to the concentration at which inhibition is half-maximal. Lower therefore signals higher potency.
